Measured values: PubChem BioAssay (NCI)
Where “and” joins values, the source holds several entries; their conditions need not be identical. Equal entries are not always repeated.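 48-hour exposure; five concentrations; linearly interpolated endpoints. GI50: concentration for 50% inhibition of growth. TGI: total growth inhibition.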

Columns and labels:
Assay in all cases: NCI tumour cell line growth inhibition, 48 h
SK-MEL-5 melanoma = test system: SK-MEL-5 melanoma
RXF 393 renal = test system: RXF 393 renal
HS 578T breast = test system: HS 578T breast
KM12 colon = test system: KM12 colon
LOX IMVI melanoma = test system: LOX IMVI melanoma
MDA-MB-435 = test system: MDA-MB-435
COLO 205 colon = test system: COLO 205 colon
TK-10 renal = test system: TK-10 renal
NCI/ADR-RES ovarian = test system: NCI/ADR-RES ovarian
U251 CNS = test system: U251 CNS

Compound	TGI (SK-MEL-5 melanoma) [µM]	TGI (RXF 393 renal) [µM]	TGI (HS 578T breast) [µM]	GI50 (KM12 colon)	TGI (KM12 colon) [µM]	TGI (LOX IMVI melanoma) [µM]	TGI (MDA-MB-435) [µM]	TGI (COLO 205 colon) [µM]	TGI (TK-10 renal) [µM]	TGI (NCI/ADR-RES ovarian) [µM]	TGI (U251 CNS) [µM]	GI50 (SK-MEL-5 melanoma) [µM]	GI50 (RXF 393 renal) [µM]	GI50 (HS 578T breast) [µM]	GI50 (LOX IMVI melanoma) [µM]	GI50 (MDA-MB-435) [µM]	GI50 (COLO 205 colon) [µM]	GI50 (TK-10 renal) [µM]	GI50 (NCI/ADR-RES ovarian) [µM]	GI50 (U251 CNS) [µM]
Oc1ccc2ccccc2c1N=Nc1ccccc1	> 100	> 100	> 100	4.95 µM and 32.4 µM	> 100	> 100	> 100	> 100	> 100	> 100	> 100									
CCS/C(Nc1ccccc1)=C(\C#N)C(=O)Nc1ccc(OC)cc1	8.19	7.86	> 100	2.8 µM	> 100	> 100	1.89	11.2	> 100	> 100	> 100	2.2	2.24	4.07	6.16	0.37	3.06	24.3	2.62	4.42
Oc1c(CN2CCCC2)cc(COCc2ccccc2)c2cccnc12	4.76	8.29	58.7	2.14 µM	18.2	5.61	26.3	26.6	22.3	0.761	13.3	1.12	2.11	8.71	0.798	4.43	10.4	1.84	0.152	2.07
O=C(NNS(=O)(=O)c1cc(C(F)(F)F)cc(C(F)(F)F)c1)c1cnn(-c2ccc(Cl)cc2)c1C(F)(F)F	29.6		44.6	18.5 µM	39.9	36.5	33.2	34.8	54.7	41	35.3	14.3		18.4	17	17	17.4	24.3	19.6	17.3
C[C@@H]1CC[C@@]2(OC1)O[C@H]1C[C@H]3[C@@H]4CC=C5C[C@@H](O[C@@H]6O[C@H](CO)[C@@H](O[C@@H]7O[C@@H](CO)[C@H](O)[C@H]7O)[C@H](O)[C@H]6O[C@@H]6O[C@@H](C)[C@H](O)[C@@H](O)[C@H]6O)CC[C@]5(C)[C@H]4CC[C@]3(C)[C@H]1[C@@H]2C	2.95	1.58	2.49		2.15	1.19	2.58	2.17	2.19	2.78	2.17	1.6	0.388		0.332	1.29	0.966		1.43	1.01
C#Cc1ccc(NC(=O)c2ccc(/C=C/C(=O)c3nccn3C)cc2)cc1	1.01	0.796	11.9	0.421 µM	0.99	0.711	1.5	1.36	4.66	25	0.757	0.49	0.408	0.853	0.365	0.58	0.592	0.905	0.77	0.347
COc1ccc2c3c(c(OCCCN(C)C)nc2c1)-c1ccc(Cl)cc1C3=O	28.4	20.1	34.3	4.01 µM	18	19.4	18.7	26.6	15.3	26	16.6	14.6	7.24	13.3	4.58	5.53	5.57	5.39	4.79	4.74
COc1ccc(/C=C2\COc3ccc(-c4ccccc4)cc3C2=O)cc1O	3.68		7.56	1.75 µM	4.09	3.87	15.9	21.9	8.3	14	4.27	1.51		2.72	1.85	2.03	3.68	2.14	3.39	1.83
O=Nc1c(O)ccc2ccccc12	2.85	19.5	8.24	5.26 µM	18.4	7.51	3.38	21.8		9.21	5.52	1.46	6.54	2.45	2.36	1.88	7.81		2.92	2.17
COc1ccc(/C=C2\N=C3SC=C(N)N3C2=O)cc1	2.64	1.58	5.56	3.08 µM	15.6	2.43	6.06	4.23		18.6	5.49	0.833	0.303	1.19	0.964	0.808	1.13		2.76	1.32
CC(=O)/C(C)=N/N/C(N)=N\S(=O)(=O)c1cc(C(=O)Nc2ccccc2)c(Cl)cc1SCc1ccccc1	> 100		> 100	60.2 µM	> 100	> 100	> 100	> 100	> 100	> 100	> 100	24		> 100	4.83	34.4	> 100	62.4	> 100	27.7
COc1ccc(-c2ccc(-c3ccc(C(=N)N)cn3)s2)cc1Cl	3.32	3.87	3.8	1.65 µM	3.04	3.08	2.73	3.15	3.41	3.84		1.82	1.98	1.79	1.63	1.43	1.41	1.79	1.92	
CC(C)(C)CC(C)(C)c1ccc(OCCOCCSC(=N)N)cc1		3.59	6.14	1.78 µM	3.33	3.09	2.84	3.12	5.19	6.61	3.04		1.78	2.28	1.72	1.51	1.65	2.47	2.59	1.65
